Ten molecules from ChEMBL document CHEMBL1141175, “Synthesis and antiviral evaluation of cis-substituted cyclohexenyl and cyclohexanyl nucleosides” (J Med Chem, 2005) can be followed below.

The test system of one assay is Human alphaherpesvirus 1. Kind of assay: Effective concentration required to inhibit herpes simplex virus type 1 Kos strain induced cytopathicity in Hel cells. It is filed as functional, organism-based. The conditions noted are these: Human alphaherpesvirus 1, HEL.
The next assay relates to Coxsackievirus. Put plainly: Effective concentration required to inhibit Coxsackie B3 virus induced cytopathicity in vero cells. It is filed as functional, organism-based.

As for `Nc1nc2c(ncn2COCCO)c(=O)[nH]1` [ACYCLOVIR], in the assay with Human alphaherpesvirus 1, the EC50 came to 0.32 µM.
For `Nc1ccn([C@H]2CCC[C@@H](CO)C2)c(=O)n1` (racemic), the figures for the EC50 with Human alphaherpesvirus 1 and with Coxsackievirus were 62 µM and > 200 µM, respectively.
In the assay on Human alphaherpesvirus 1, `Nc1nc2c(ncn2COC(CO)CO)c(=O)[nH]1` [GANCICLOVIR] returned a concentration giving a half-maximal response (EC50) of 0.06 µM.
For `Cc1cn([C@H]2CCC[C@@H](CO)C2)c(=O)[nH]c1=O` (racemic), the EC50 in the assay with Human alphaherpesvirus 1 was > 200 µM; in the assay with Coxsackievirus it was 168 µM.
Turning to `N#Cc1cc([N+](=O)[O-])ccc1Oc1ccc(Cl)c(Cl)c1`, the EC50 in the assay on Coxsackievirus stood at 5.84 µM.
Take `Nc1ncnc2c1ncn2[C@H]1C=CC[C@@H](CO)C1` (racemic): the EC50 with Human alphaherpesvirus 1 and in the assay with Coxsackievirus was > 200 µM in each case.
Turning to `Nc1ccn([C@H]2C=CC[C@@H](CO)C2)c(=O)n1` (racemic), the EC50 in the assay on Human alphaherpesvirus 1 and in the assay with Coxsackievirus was > 200 µM each time.
As for `Cc1cn([C@H]2C=CC[C@@H](CO)C2)c(=O)[nH]c1=O` (racemic), the results for the EC50 with Human alphaherpesvirus 1 and in the assay on Coxsackievirus were 63 µM and > 200 µM, respectively.
As to `Nc1ncnc2c1ncn2[C@H]1CCC[C@@H](CO)C1` (racemic), the EC50 with Human alphaherpesvirus 1 and in the assay on Coxsackievirus was > 200 µM in each case.
Turning to `Nc1nc(O)c2ncn([C@H]3C=CC[C@@H](CO)C3)c2n1` (racemic), the EC50 in the assay with Human alphaherpesvirus 1 and with Coxsackievirus was > 200 µM each time.
